Laboratory results taken from patent US20220047678A1, “Combination Therapy for Treatment of Liver Disease” (Gilead Sciences, Inc., priority 2020, published 2022).

Columns and labels:
[1] = Serum lipids, change from baseline to week 24; assay type: in vivo, human; conditions: LS mean
Method: In general, subjects fast (no food or drink, except water) for approximately 10 hours prior to the blood sample collection.
Additional tests include HIV-1 (reflex to HIV-1 RNA), HBV (HBsAg), HCV (reflex to HCV RNA) serology, homeostasis model assessment of Insulin resistance (HOMA-IR, based on fasting glucose and insulin), eGFR as calculated by MDRD, HbA1c, C-peptide, calcitonin, insulin, lipid panel, genomic sample collection, ELF™ Test, and FibroTest®. Biomarker tests include, but are not limited to C-reactive protein (CRP), NMR LipoProfile®, apolipoproteins, and adiponectin.
Imaging assessments (MRI-PDFF, liver stiffness by 2-D magnetic resonance elastography [MRE] and TE) were conducted at screening (or within 4 weeks prior to screening), and at weeks 12 and 24. TE was performed by experienced operators, and MRI-PDFF and MRE images were analyzed by a central reader as previously described [Patel et al. Hepatology. 2020; 72(1):58-71; Loomba et al. Gastroenterology. 2018; 155(5):1463-1473; Loomba et al. Hepatology. 2020 Nov. 10. doi: 10.1002/hep.31622]. Serum samples were collected at screening, baseline, and every 4 weeks through to week 24 for clinical laboratory values; blood biomarkers were assessed at screening, baseline, and weeks 12 and 24.
All protocol-defined, efficacy analyses were exploratory in nature and descriptive statistics are provided. Comparative analyses between combination regimens and semaglutide monotherapy were conducted post-hoc. For evaluation of changes from baseline to week 24, analysis of covariance (ANCOVA) with adjustment for baseline value and diabetes status was used, and least-squares (LS) means, LS mean differences, associated 95% confidence intervals (CI), and p-values were calculated. Proportions of binary responders were compared by Fisher's exact test.

[2] = Safety assessments (adverse events, laboratory abnormalities, vital signs) in 24-week open-label clinical study; assay type: in vivo, human
From the text: This is a proof of concept, open-label study evaluating the safety, tolerability, and efficacy of monotherapy and combination regimens in subjects with NASH. Subjects meeting the study's entry criteria are randomly assigned in a 1:1:1:1:1 ratio to 1 of 5 treatment groups, with approximately 20 subjects in each group, as shown in the FIG. 2. Randomization is stratified by the presence or absence of type 2 diabetes mellitus, as determined by medical history or based on the Screening laboratory values if previously undiagnosed (hemoglobin A1c [HbA1c]≥6.5%). The study may last up to 35 weeks, which includes a 2-week Screening period, a 2 week Pre-Treatment period, up to a 24-week Treatment period, and a 7-week Follow-Up period.
Study drug dosing and administration is as follows, based on treatment group randomization as summarized in FIG. 2: • Treatment Group A: Semaglutide administered subcutaneously with pre-filled pen-injector once weekly. • Treatment Group B: Semaglutide administered subcutaneously with pre-filled pen-injector once weekly, one firsocostat 20 mg tablet, administered orally once daily without regard to food. • Treatment Group C: Semaglutide administered subcutaneously with pre-filled pen-injector once weekly, one cilofexor 30 mg tablet, administered orally once daily without regard to food. • Treatment Group D: Semaglutide administered subcutaneously with pre-filled pen-injector once weekly, one cilofexor 100 mg tablet, administered orally once daily without regard to food. • Treatment Group E: Semaglutide administered subcutaneously with pre-filled pen-injector once weekly, one firsocostat 20 mg tablet administered orally once daily and one cilofexor 30 mg tablet administered orally once daily, both without regard to food.
Semaglutide was administered by subcutaneous injection once weekly with a prefilled pen-injector and was initiated at a starting dose of […], which was increased at 4-week intervals (to 0.5 mg, 1.0 mg, and 1.7 mg) until the recommended target dose of 2.4 mg was reached (from week 17 onwards). Patients who could not tolerate the planned dose-escalation schedule were encouraged to extend any single dose step for a maximum of one additional week, and to re-attempt dose escalation to 2.4 mg at least once. Cilofexor and firsocostat were given orally once daily with or without food.
Safety assessments included adverse events, clinical laboratory assessments, vital signs, electrocardiograms (ECG), and physical examination. Clinical and laboratory adverse events were coded using the Medical Dictionary for Regulatory Activities (MedDRA), version 23.0.
Safety analyses were performed on the safety analysis set, which included all patients who took at least one dose of any study drug. Efficacy analyses were performed on the full analysis set (FAS), which included all randomized patients who received at least one dose of any study drug. Since all dosed subjects were randomized, these two analysis sets included the same patients.

## CC[C@H](C)[C@H](NC(=O)[C@H](Cc1ccccc1)NC(=O)[C@H](CCC(=O)O)NC(=O)[C@H](CCCCNC(=O)COCCOCCNC(=O)COCCOCCNC(=O)CC[C@H](NC(=O)CCCCCCCCCCCCCCCCC(=O)O)C(=O)O)NC(=O)[C@H](C)NC(=O)[C@H](C)NC(=O)[C@H](CCC(N)=O)NC(=O)CNC(=O)[C@H](CCC(=O)O)NC(=O)[C@H](CC(C)C)NC(=O)[C@H](Cc1ccc(O)cc1)NC(=O)[C@H](CO)NC(=O)[C@H](CO)NC(=O)[C@@H](NC(=O)[C@H](CC(=O)O)NC(=O)[C@H](CO)NC(=O)[C@@H](NC(=O)[C@H](Cc1ccccc1)NC(=O)[C@@H](NC(=O)CNC(=O)[C@H](CCC(=O)O)NC(=O)C(C)(C)NC(=O)[C@@H](N)Cc1cnc[nH]1)[C@@H](C)O)[C@@H](C)O)C(C)C)C(=O)N[C@@H](C)C(=O)N[C@@H](Cc1c[nH]c2ccccc12)C(=O)N[C@@H](CC(C)C)C(=O)N[C@H](C(=O)N[C@@H](CCCNC(=N)N)C(=O)NCC(=O)N[C@@H](CCCNC(=N)N)C(=O)NCC(=O)O)C(C)C [Semaglutide 2.4 mg, Semaglutide]
[1]
  HDL cholesterol, least squares mean change from baseline to week 24: -1 mg/dL
  LDL cholesterol, least squares mean change from baseline to week 24: -9 mg/dL
  Total cholesterol, least squares mean change from baseline to week 24: -15 mg/dL
  Triglycerides, least squares mean change from baseline to week 24: -28 mg/dL
  VLDL cholesterol, least squares mean change from baseline to week 24: -7 mg/dL
[2]; human, in vivo
  Abdominal distension: 0 n
  Gastroenteritis: 0 n
  Gastroesophageal reflux disease: 0 n
  Hypoglycaemia: 0 n
  Laboratory abnormalities, Grade 3: 0 n
  Laboratory abnormalities, Grade 4: 0 n
  Pruritus (adverse event of interest): 0 n
  Serious adverse events (nature): grade 3 diarrhea and vomiting
[2]; patients
  Death: 0 n
